Reference: patent US12325696B2, “Indazole derivative, preparation method therefor, and pharmaceutical application thereof” (JIANGSU HENGRUI MEDICINE CO., LTD., priority 2019, dated 2025)

Experiments:
MCF7 ERαY537S = experiment: Inhibition of proliferation of MCF7 cell expressing ERα Y537S mutant; format: cell-based; conditions: Homo sapiens, 144 hours; for Emax: read-out: Maximum inhibition
Summary of the method: (§1)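 MCF7 cells stably expressing lentiviral ERα Y537S or D538G mutants, seeded 3,000 cells/well, then exposed in 2% FBS MEM to nine 4-fold dilutions from 100 nM for 144 h at 37° C. Viability read by CellTiter-Glo luminescence; IC50 fitted from concentration-response.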

MCF7 D538G = experiment: Inhibition of proliferation of MCF7 cell expressing ERα D538G mutant; format: cell-based; conditions: Homo sapiens, 144 hours; for Emax: read-out: Maximum inhibition
Summary of the method: as §1

MCF7 cell = experiment: Inhibition of proliferation of MCF7 cell (CellTiter-Glo, 144 hours); format: cell-based; conditions: Homo sapiens; for IC50: MCF7, CellTiter-Glo, read-out: IC50 of the inhibitory effect on the proliferation of MCF7 cell; for Emax: MCF7 cell proliferation, read-out: Maximum inhibition
Summary of the method: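 Seeded overnight, MCF7 cells were treated in MEM with 2% FBS with nine 4-fold dilutions from 100 nM (0.5% DMSO blank). Incubation 144 h at 37° C, 5% CO2. CellTiter-Glo luminescence read; IC50 from signal versus log concentration.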

[1] = molecular target: estrogen receptor ERα wild-type (Homo sapiens (Human), UniProt P03372); experiment: Covalent modification of ERα wild-type LBD by high-resolution mass spectrometry; format: binding; conditions: after 24 hours; 2 μM protein, 10 μM compound, 4° C.
Sequence of estrogen receptor ERα wild-type (P03372 296-554): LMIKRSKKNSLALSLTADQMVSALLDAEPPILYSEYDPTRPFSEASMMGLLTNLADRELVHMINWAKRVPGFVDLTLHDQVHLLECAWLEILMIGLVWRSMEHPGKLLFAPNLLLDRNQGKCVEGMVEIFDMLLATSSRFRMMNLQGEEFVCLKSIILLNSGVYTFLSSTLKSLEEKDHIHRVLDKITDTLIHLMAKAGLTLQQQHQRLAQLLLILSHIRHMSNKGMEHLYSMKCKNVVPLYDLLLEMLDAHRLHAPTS
Description: (§2) The ligand binding domain (LBD, aa296-554) of estrogen receptor ERα wild-type and ERα Y537S mutant-type was expressed in E. coli and purified. 2 μM ERα wild-type or ERα Y537S mutant-type protein and 10 μM compound were added to a buffer solution containing 50 mM Tris-HCl, pH7.5, 150 mM NaCl, 1 mM TCEP and 5% glycerol and mixed well. The solution was incubated at 4° C. for 24 hours, followed by high-resolution mass spectrometry (Agilent Technologies, Agilent Q-tof 6530) assay. Alternatively, 1 μM ERα wild-type or ERα Y537S mutant-type protein and 3 μM compound were added to a buffer solution containing 50 mM Tris-HCl, pH7.5, 150 mM NaCl, 1 mM TCEP and 5% glycerol and mixed well. The solution was incubated at 37° C. for 15 minutes, followed by high-resolution mass spectrometry assay. In the mass spectrometry assay results, the peak whose molecular weight is the sum of the molecular weight of the protein and compound is the product of covalent modification. The percentage of covalent modification is obtained by calculating the ratio of […] to total protein.

[2] = molecular target: estrogen receptor ERα Y537S mutant-type (Homo sapiens (Human), UniProt P03372, Y537S); experiment: Covalent modification of ERα Y537S mutant-type LBD by high-resolution mass spectrometry; format: binding; conditions: after 24 hours; 2 μM protein, 10 μM compound, 4° C.
Sequence of estrogen receptor ERα Y537S mutant-type (P03372 296-554 Y537S): as the sequence (P03372 296-554) above, with Y242S counted along it
Description: as §2

[3] = system: estrogen receptor reporter gene; experiment: Inhibition of estrogen receptor reporter gene activity (ERE-luc luciferase) in MCF7/ERE-luc cells; format: cell-based; conditions: Homo sapiens, 0.1 nM β-estradiol, 20 hours, read-out: IC50 of inhibitory activity on the activity of the estrogen receptor reporter gene
Summary of the method: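 MCF7 cells stably carrying ERE-driven luciferase, in charcoal-stripped serum medium, were stimulated with 0.1 nM β-estradiol plus compound (nine 10-fold dilutions from 10 μM) for 20 h at 37° C. ONE-Glo luminescence was read, and IC50 was fitted from signal versus log concentration.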

Nav1.5 ion channel = Nav1.5 ion channel (Homo sapiens (Human), UniProt Q14524); experiment: Manual patch clamp inhibition of Nav1.5 current in HEK293 cell; format: cell-based; conditions: whole-cell patch clamp, read-out: IC50 on inhibiting the Nav1.5 channel activity
Sequence of Nav1.5 ion channel (Q14524 whole entry): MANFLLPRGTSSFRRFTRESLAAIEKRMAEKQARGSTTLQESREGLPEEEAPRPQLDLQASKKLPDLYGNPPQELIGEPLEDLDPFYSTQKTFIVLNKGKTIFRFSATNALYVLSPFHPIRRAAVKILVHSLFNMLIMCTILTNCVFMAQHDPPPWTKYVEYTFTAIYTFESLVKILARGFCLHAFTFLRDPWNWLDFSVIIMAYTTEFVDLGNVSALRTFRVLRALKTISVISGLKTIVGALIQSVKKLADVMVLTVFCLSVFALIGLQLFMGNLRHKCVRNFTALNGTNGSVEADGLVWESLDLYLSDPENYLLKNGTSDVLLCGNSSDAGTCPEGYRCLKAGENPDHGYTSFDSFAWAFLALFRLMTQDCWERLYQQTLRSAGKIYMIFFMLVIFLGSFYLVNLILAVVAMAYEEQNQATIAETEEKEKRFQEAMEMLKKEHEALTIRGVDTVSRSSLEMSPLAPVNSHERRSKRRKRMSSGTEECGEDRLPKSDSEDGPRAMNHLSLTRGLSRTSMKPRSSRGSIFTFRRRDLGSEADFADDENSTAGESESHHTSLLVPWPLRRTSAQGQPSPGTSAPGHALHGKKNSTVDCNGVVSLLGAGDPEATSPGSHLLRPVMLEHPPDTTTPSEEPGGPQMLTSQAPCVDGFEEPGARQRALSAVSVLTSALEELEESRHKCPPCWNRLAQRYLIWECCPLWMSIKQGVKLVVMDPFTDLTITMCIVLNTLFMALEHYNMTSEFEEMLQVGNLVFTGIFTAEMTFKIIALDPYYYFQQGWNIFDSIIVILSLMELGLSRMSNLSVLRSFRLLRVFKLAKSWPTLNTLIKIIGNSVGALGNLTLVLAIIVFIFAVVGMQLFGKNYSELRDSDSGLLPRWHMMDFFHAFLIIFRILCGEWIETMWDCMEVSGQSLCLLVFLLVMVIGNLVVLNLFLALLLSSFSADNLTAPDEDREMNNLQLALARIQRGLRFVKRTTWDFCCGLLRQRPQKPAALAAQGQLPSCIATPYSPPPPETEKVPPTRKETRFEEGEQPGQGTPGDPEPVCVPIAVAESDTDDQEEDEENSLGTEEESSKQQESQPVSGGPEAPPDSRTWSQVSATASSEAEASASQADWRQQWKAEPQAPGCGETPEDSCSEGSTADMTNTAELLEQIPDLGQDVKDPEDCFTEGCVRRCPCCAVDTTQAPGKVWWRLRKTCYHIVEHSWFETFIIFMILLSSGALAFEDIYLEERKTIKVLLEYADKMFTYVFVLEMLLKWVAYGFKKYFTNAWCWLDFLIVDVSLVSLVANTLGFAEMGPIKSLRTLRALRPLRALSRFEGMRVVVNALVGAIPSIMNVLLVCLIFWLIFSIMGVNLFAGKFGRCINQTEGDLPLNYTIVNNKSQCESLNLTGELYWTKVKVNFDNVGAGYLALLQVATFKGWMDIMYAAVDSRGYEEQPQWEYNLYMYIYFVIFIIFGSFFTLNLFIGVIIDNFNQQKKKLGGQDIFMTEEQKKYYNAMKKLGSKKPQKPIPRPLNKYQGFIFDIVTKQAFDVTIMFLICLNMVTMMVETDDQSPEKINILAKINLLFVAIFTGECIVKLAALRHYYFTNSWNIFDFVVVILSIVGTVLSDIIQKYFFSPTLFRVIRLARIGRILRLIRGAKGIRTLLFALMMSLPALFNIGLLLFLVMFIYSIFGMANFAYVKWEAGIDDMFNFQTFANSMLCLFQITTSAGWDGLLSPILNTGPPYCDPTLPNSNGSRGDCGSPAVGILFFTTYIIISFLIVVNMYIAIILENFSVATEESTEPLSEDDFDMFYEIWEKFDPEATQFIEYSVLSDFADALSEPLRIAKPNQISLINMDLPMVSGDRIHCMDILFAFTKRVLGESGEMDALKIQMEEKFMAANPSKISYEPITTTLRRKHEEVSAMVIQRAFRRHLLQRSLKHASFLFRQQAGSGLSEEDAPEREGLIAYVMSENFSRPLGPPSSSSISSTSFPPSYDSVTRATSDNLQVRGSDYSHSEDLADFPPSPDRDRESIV
Description: The purpose of the experiment is to investigate the effect of the compounds on Nav1.5 ion channel in an […] experiment. Nav1.5 ion channel is stably expressed on HEK293 cell. After the Nav1.5 current becomes stable, the Nav1.5 currents before and after the administration of the compound are compared so as to obtain the effect of the compound on the Nav1.5 ion channel.
Extracellular fluid: NaCl, 137 mM; KCl, 4 mM; CaCl2), 1.8 mM; MgCl2, 1 mM; HEPES, 10; glucose, 10 mM; pH 7.4 (NaOH titration).
Intracellular fluid: aspartic acid, 140 mM; MgCl2, 2 mM; EGTA, 11 mM; HEPES, 10 mM; pH 7.2 (CsOH titration).
The test compound was dissolved in dimethyl sulfoxide (DMSO) at a stock concentration of 9 mM. The stock solution of the test compound was dissolved in the extracellular fluid on the day of the test and formulated into the required concentration.
1) The compound was formulated into solutions with specified concentrations. The solutions were added to the pipelines respectively in order from high to low concentration, and the pipelines were marked.
2) The cell was transferred to the perfusion tank, and perfused with the extracellular fluid. The intracellular fluid was stored in small batches in a −80° C. refrigerator, and melted on the day of the experiment. The electrode was pulled with PC-10 (Narishige, Japan). Recording was carried out with the whole-cell patch clamp, and the noise was filtered at one-fifth of the sampling frequency.
3) All compounds were perfused with a perfusion system that uses its own gravity. Each concentration was tested in at least two cells. After the current stabilized (or after 5 minutes), the blocking effect of the compound was calculated by comparing the changes in the current before and after the administration of the compound.
The cell was clamped at −80 mV. The cell was depolarized to Vhalf with a square wave lasting 8 milliseconds, hyperpolarized to −120 mV with a square wave lasting 20 milliseconds, and depolarized to −10 mV with a square wave lasting 20 milliseconds to obtain the Nav1.5 current. This procedure was repeated every 15 seconds. The maximum current caused by the −10 mV square wave was measured. After the current became stable, the test compound was perfused. After the response became stable, the blocking intensity was calculated.
The data was stored in the computer system for analysis. Data collection and analysis were carried out by pCLAMP 10 (Molecular Devices, Union City, CA). Stable current means that the absolute average value of the peak current of four consecutive scans exceeds 200 pA and the CV value is less than 10%, or the average value of the peak current of four consecutive scans is between 200 pA and 50 pA and the CV value is less than 30%. The average value of the last four current peaks after the current stabilized was used to calculate the effect of the compound at the concentration.

Row | Compound | IC50 (MCF7 ERαY537S) [nM] | IC50 (MCF7 D538G) [nM] | IC50 (MCF7 cell) [nM] | Covalent modification effect on the estrogen receptor ERα wild-type [1] [%] | Covalent modification effect on the estrogen receptor ERα Y537S mutant-type [2] [%] | IC50 [3] [nM] | Emax (MCF7 ERαY537S) [%] | Emax (MCF7 D538G) [%] | Emax (MCF7 cell) [%] | IC50 (Nav1.5 ion channel) [nM]
1 | O=C(/C=C/CNCCOc1ccc(/C(=C(/CC(F)(F)F)c2ccccc2)c2ccc3[nH]nc(F)c3c2)cn1)N1CCOCC1 [Example 43, (E)-1-Morpholino-4-((2-((5-((Z)-4,4,4-trifluoro-1-(3-fluoro-1H-indazol-5-yl)-2-phenylbut-1-en-1-yl)pyridin-2-yl)oxy)ethyl)amino)but-2-en-1-one, reference compound] |  |  |  |  |  |  |  |  |  | 2700
2 | CN(C)C(=O)/C=C/CN1CCC[C@@H](Oc2ccc(/C(=C(/CC(F)(F)F)c3ccc(S(C)(=O)=O)cc3)c3ccc4[nH]nc(F)c4c3)cn2)C1 [Example 23, (E)-N,N-Dimethyl-4-((R)-3-((5-((Z)-4,4,4-trifluoro-1-(3-fluoro-1H-indazol-5-yl)-2-(4-(methylsulfonyl)phenyl)but-1-en-1-yl)pyridin-2-yl)oxy)piperidin-1-yl)but-2-enamide] | 5 | 7 | 1 | 95 | 99 | 13 | 94 | 101 | 97 | 
3 | CN(C)C(=O)/C=C/CN1CCC[C@@H](Oc2ccc(/C(=C(/CC(F)(F)F)c3ccc(C#N)cc3)c3ccc4[nH]nc(F)c4c3)cn2)C1 [Example 24, (E)-4-((R)-3-((5-((Z)-2-(4-Cyanophenyl)-4,4,4-trifluoro-1-(3-fluoro-1H-indazol-5-yl)but-1-en-1-yl)pyridin-2-yl)oxy)piperidin-1-yl)-N,N-dimethylbut-2-enamide] | 8 | 8 | 1 | 90 | 99 | 9 | 102 | 94 | 98 | 
4 | O=C(/C=C/CN1CCC[C@@H](Nc2ccc(/C(=C(/CC(F)(F)F)c3ccccc3)c3ccc4[nH]nc(F)c4c3)cn2)C1)N1CCOCC1 [Example 32, (E)-1-Morpholino-4-((R)-3-((5-((Z)-4,4,4-trifluoro-1-(3-fluoro-1H-indazol-5-yl)-2-phenylbut-1-en-1-yl)pyridin-2-yl)amino)piperidin-1-yl)but-2-en-1-one] | 19 | 11 | 5 | 94 | 95 | 28 | 84 | 95 | 100 | 

The next lines start with results.

Row | IC50 (MCF7 ERαY537S) [nM] | IC50 (MCF7 D538G) [nM] | IC50 (MCF7 cell) [nM] | Covalent modification effect on the estrogen receptor ERα wild-type [1] [%] | Covalent modification effect on the estrogen receptor ERα Y537S mutant-type [2] [%] | IC50 [3] [nM] | Compound | Emax (MCF7 ERαY537S) [%] | Emax (MCF7 D538G) [%] | Emax (MCF7 cell) [%] | IC50 (Nav1.5 ion channel) [nM]
5 | 3 | 2 | 0.7 | 80 | 83 | 6 | CN(C)C(=O)/C=C/CN1CCC[C@@H](Nc2ccc(/C(=C(/CC(F)(F)F)c3ccccc3)c3ccc4[nH]nc(F)c4c3)cn2)C1 [Example 31, (E)-N,N-Dimethyl-4-((R)-3-((5-((Z)-4,4,4-trifluoro-1-(3-fluoro-1H-indazol-5-yl)-2-phenylbut-1-en-1-yl)pyridin-2-yl)amino)piperidin-1-yl)but-2-enamide] | 105 | 101 | 97 | 
6 | 2 | 2 | 0.4 | 94 | 97 | 4 | CN(C)C(=O)/C=C/CN1CCC[C@@H](Oc2ccc(/C(=C(/CC(F)(F)F)c3ccc(F)cc3)c3ccc4[nH]nc(F)c4c3)cn2)C1 [Example 19, (E)-N,N-Dimethyl-4-((R)-3-((5-((Z)-4,4,4-trifluoro-1-(3-fluoro-1H-indazol-5-yl)-2-(4-fluorophenyl)but-1-en-1-yl)pyridin-2-yl)oxy)piperidin-1-yl)but-2-enamide] | 106 | 97 | 97 | 
7 | 2 | 1 | 0.4 | 85 | 83 | 2 | O=C(/C=C/CN1CCC[C@@H](Oc2ccc(/C(=C(/CC(F)(F)F)c3ccccc3)c3ccc4[nH]nc(F)c4c3)cn2)C1)N1CCOCC1 [Example 12, (E)-1-Morpholino-4-((R)-3-((5-((Z)-4,4,4-trifluoro-1-(3-fluoro-1H-indazol-5-yl)-2-phenylbut-1-en-1-yl)pyridin-2-yl)oxy)piperidin-1-yl)but-2-en-1-one] | 104 | 96 | 108 | 
